From US20160186067A1, “METHODS AND SYSTEMS FOR […]” (SHELL OIL COMPANY, priority 2014, published 2016)

Assay: Partitioning of reaction intermediates and solvents between upper toluene-rich and lower aqueous phases (toluene extraction)
Conditions: for Kow UL/LL (partition coefficients for toluene extraction): upper toluene-rich layer / lower aqueous-rich layer, toluene added to reactor product of wood digestion, stirred at 150° C. for 2 hours, then cooled and decanted; for Phase preference in toluene extraction: upper organic vs lower aqueous phase, Example 2
Description: The injector temperature was set at 250° C., and the detector temperature was set at 300° C. A range of alkanes, ketone and aldehyde monooxygenates as well as residual glycol intermediates including ethylene glycol (EG), 1,2-propylene glycol (PG) and glycerol were observed, along with phenolic components from the initial charge of solvent, and those formed in reaction.
Reaction cycles entailed 1 hour at 160° C., followed by 1 hour at 190° C., followed by 3 hours at 240° C. Six cycles of wood addition were effected, followed by heating overnight at 270° C. under 52 bar of H2 to complete the conversion of intermediates.
Stirring was then stopped, and the reactor was allowed to cool. […] Catalyst was left on the reactor bottom.

| Compound | Kow UL/LL (partition coefficients for toluene extraction) | Phase preference in toluene extraction |
| --- | --- | --- |
| OCCO [EG, ethylene glycol] | 0.42 | – |
| CCCc1ccc(O)c(OC)c1 [MPP, 2-methoxy-4-propylphenol] | 33.59 | highly favored the upper organic-rich phase |
| CC(O)CO (stereo not drawn) [PG, 1,2-propylene glycol] | 5.09 | – |
| Cc1cccc(C)c1O [xylenol, 2,6-xylenol] | 51.79 | highly favored the upper organic-rich phase |
